Values belong to the compound of their own block, whether it stands above or below them. No end group written: not given here.
Key:
[1] = molecular target: T1, DPP IV (Sus scrofa, UniProt P22411); test: Degradation of GIP and analogues by DPP IV (HPLC); type: in vitro ADME
T1 construct: purchased Sigma (Poole, Dorset, UK)
Experimental: Degradation of GIP and Tyr^1-glucitol GIP by DPP IV. HPLC-purified GIP or Tyr^1-glucitol GIP were incubated at 37° C. with DPP-IV (5 mU) for various time periods in a reaction mixture made up to 500 μl with 50 mmol/l triethanolamine-HCl, pH 7.8 (final peptide concentration 1 mmol/l). Enzymatic reactions were terminated after 0, 2, 4 and 12 hours by addition of 5 μl of 10% (v/v) TFA/water. Samples were made up to a final volume of 1.0 ml with 0.12% (v/v) TFA and stored at −20° C. prior to HPLC analysis.
(§1) HPLC analysis of degraded GIP and Tyr^1-glucitol GIP. […] Using 0.1% (v/v) TFA in 70% acetonitrile/H20, the concentration of acetonitrile in the eluting solvent was raised from 0% to 31.5% over 15 min, to 38.5% over 30 minutes and from 38.5% to 70% over 5 minutes, using linear gradients. The absorbance was monitored at 206 nm and peak areas evaluated using a model 2221 LKB integrator. Samples recovered manually were concentrated using a Speed-Vac concentrator.
(§2) Electrospray ionization-mass spectrometry (ESI-MS) was carried out as described in Example 2. Degradation of GIP and novel GIP analogues by DPP IV and human plasma was carried out as described in Example 2.

[2] = Degradation of GIP and analogues by human plasma (HPLC); type: in vitro ADME
Experimental: Degradation of GIP and Tyr^1-glucitol GIP by human plasma. […] […] The reactions were terminated by addition of 5 μl of TFA and the final volume adjusted to 1.0 ml using 0.1% v/v TFA/water. Samples were centrifuged (13,000 g, 5 minutes) and the supernatant applied to a C-18 Sep-Pak cartridge (Millipore-Waters) which was previously primed and washed with 0.1% (v/v) TFA/water. […] The volume was adjusted to 1.0 ml with 0.12% (v/v) TFA/water prior to HPLC purification.
as §1, §2

[3] = tested on: ob/ob mice; test: Once daily i.p. (Pro3)GIP over 11 days in ob/ob mice (Example 5); type: in vivo, mouse
Experimental: Animals. Obese diabetic (ob/ob) mice derived from the colony maintained at Aston University, UK (Bailey, C. J., et al., 1982, Int. J. Obes. 6:11-21) were used at 12-16 weeks of age. Animals were age-matched, divided into groups and housed individually in an air-conditioned room at 22±2° C. with a 12 hour light: 12 hour dark cycle. Drinking water and a standard rodent maintenance diet (Trouw Nutrition, Cheshire, UK) were freely available. All animal experiments were carried out in accordance with the UK Animals (Scientific Procedures) Act 1986.
Experimental protocols for ob/ob mouse studies. Initially, extended biological activity of (Pro^3)GIP was examined in 18-hour fasted ob/ob mice 4 hours after administration. Thereafter, over an 11-day period, mice received once daily i.p. injections (17:00 hours) of either saline vehicle (0.9% (w/v), NaCl) or (Pro^3)GIP (25 nmol/kg body wt). During a subsequent 9-day period, observations were continued following discontinuation of (Pro^3)GIP administration. Food intake and body weight were recorded daily whilst plasma glucose and insulin concentrations were monitored at intervals of 2-6 days. Whole blood for the measurement of glycated hemoglobin was taken on days 11 and 20. Intraperitoneal glucose tolerance (18 mmol/kg body wt), metabolic response to native GIP (25 nmol/kg body wt) and insulin sensitivity (50 U/kg body wt) tests were performed on days 11 and 20. Mice fasted for 18 hours were used to examine the metabolic response to 15 minutes feeding. In a separate series, pancreatic tissues were excised at the end of the 11-day treatment period or 9 days following discontinuation of (Pro^3)GIP and processed for immunohistochemistry or measurement of insulin following extraction with 5 ml/g of ice-cold acid ethanol (750 ml ethanol, 235 ml water, 15 ml concentrated HCl). Blood samples taken from the cut tip of the tail vein of conscious mice at the times indicated in the Figures were immediately centrifuged using a Beckman microcentrifuge (Beckman Instruments, UK) for 30 seconds at 13,000 g. The resulting plasma was then aliquoted into fresh Eppendorf tubes and stored at −20° C. prior to glucose and insulin determinations.
Biochemical analysis. Plasma glucose was assayed by an automated glucose oxidase procedure (Stevens, J. F., 1971, Clin. Chem. Acta 32:199-201) using a Beckman Glucose Analyzer II (Beckman Instruments, Galway, Ireland). Plasma and pancreatic insulin were assayed by a modified dextran-coated charcoal radioimmunoassay (Flatt, P. R. et al., 1981, Diabetologia 20:573-577). Glycated hemoglobin was determined using cation-exchange columns (Sigma, Poole, Dorset, UK) with measurement of absorbance (415 nm) in wash and eluting buffer using a VersaMax Microplate Spectrophotometer (Molecular Devices, Wokingham, Berkshire, UK).
Immunocytochemistry. Tissue fixed in 4% paraformaldehyde/PBS and embedded in paraffin was sectioned at 8 μm. After de-waxing, sections were incubated with blocking serum (Vector Laboratories, Calif., USA) prior to exposure to insulin antibody. Tissue samples were then incubated consecutively with secondary biotinylated universal, pan-specific antibody (Vector Laboratories, Calif., USA) and streptavidin/peroxidase preformed complex (Vector Laboratories, Calif., USA). Following washing, the stained pancreatic tissue was counterstained with hematoxylin (BDH Chemicals, Dorset, UK) and then plunged into acid methanol (500 ml methanol, 500 ml H2O and 2.5 ml concentrated HCl) prior to dehydration and mounting in Depex (BDH Chemicals, Dorset, UK). The stained slides were viewed under a microscope (Nikon Eclipse E2000, Diagnostic Instruments Incorporated, Michigan, USA) attached to a JVC camera Model KY-F55B (JVC, London, UK) and analyzed using Kromoscan imaging software (Kinetic Imaging Limited, Faversham, Kent, UK). […]

[4] = isolated enzyme dpp iv, pH 7.8, % Intact peptide remaining after time (h)
[5] = human, plasma, pH 7.8, % Intact peptide remaining after incubations with human plasma
[6] = 4 hours after 25 nmoles/kg, 18 h fasted, vs saline

T1 sequence (P22411 whole entry): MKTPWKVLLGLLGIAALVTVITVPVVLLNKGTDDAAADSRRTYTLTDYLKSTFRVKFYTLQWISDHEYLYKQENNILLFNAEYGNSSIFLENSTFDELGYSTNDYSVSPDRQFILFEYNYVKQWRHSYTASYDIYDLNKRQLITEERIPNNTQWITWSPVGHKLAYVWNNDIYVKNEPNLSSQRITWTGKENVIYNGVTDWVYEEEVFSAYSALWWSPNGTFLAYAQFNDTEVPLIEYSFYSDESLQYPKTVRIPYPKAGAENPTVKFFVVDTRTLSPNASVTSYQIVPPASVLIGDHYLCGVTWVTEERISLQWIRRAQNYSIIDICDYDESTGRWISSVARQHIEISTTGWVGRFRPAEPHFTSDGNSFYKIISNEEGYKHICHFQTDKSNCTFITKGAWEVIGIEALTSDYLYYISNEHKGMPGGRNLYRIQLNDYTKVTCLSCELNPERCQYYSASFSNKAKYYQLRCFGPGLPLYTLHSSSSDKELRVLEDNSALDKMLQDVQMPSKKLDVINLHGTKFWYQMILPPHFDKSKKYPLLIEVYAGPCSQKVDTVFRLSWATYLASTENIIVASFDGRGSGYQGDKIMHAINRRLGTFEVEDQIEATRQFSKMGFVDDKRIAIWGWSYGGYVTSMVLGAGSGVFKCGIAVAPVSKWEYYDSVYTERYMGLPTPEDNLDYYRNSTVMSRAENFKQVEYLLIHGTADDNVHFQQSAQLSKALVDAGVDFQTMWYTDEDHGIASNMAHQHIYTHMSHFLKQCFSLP

% Intact peptide remaining after time (h) ([1]; 0 h): 100%
metabolised at 12 h, 1 mmol/l ([1]; isolated enzyme dpp iv, pH 7.8): 60%
remaining at 2 h, 1 mmol/l [1, 4]: 52 ± 1%
remaining at 4 h, 1 mmol/l [1, 4]: 23 ± 1%
remaining at 8 h, 1 mmol/l [1, 4]: 0%
remaining at 24 h, 1 mmol/l [1, 4]: 0%
remaining at 4 h, 1 mmol/l ([1]; isolated enzyme dpp iv, pH 7.8, % intact after incubation with DPP IV): 54%
degradation by human plasma [2]: readily metabolised
plasma degradation [2]: rapidly degraded
% Intact peptide remaining after incubations with human plasma ([2]; human, plasma, 0 h): 100%
remaining at 2 h, 20 µg/ml [2, 5]: 52 ± 1%
remaining at 4 h, 20 µg/ml [2, 5]: 23 ± 1%
remaining at 8 h, 20 µg/ml [2, 5]: 0%
Compound: CC[C@H](C)[C@H](NC(=O)[C@H](CO)NC(=O)[C@H](Cc1ccc(O)cc1)NC(=O)[C@H](CC(=O)O)NC(=O)[C@H](CO)NC(=O)[C@@H](NC(=O)[C@H](Cc1ccccc1)NC(=O)[C@@H](NC(=O)CNC(=O)[C@H](CCC(=O)O)NC(=O)[C@H](C)NC(=O)[C@@H](N)Cc1ccc(O)cc1)[C@@H](C)O)[C@@H](C)CC)C(=O)N[C@@H](C)C(=O)N[C@@H](CCSC)C(=O)N[C@@H](CC(=O)O)C(=O)N[C@@H](CCCCN)C(=O)N[C@H](C(=O)N[C@@H](Cc1c[nH]cn1)C(=O)N[C@@H](CCC(N)=O)C(=O)N[C@@H](CCC(N)=O)C(=O)N[C@@H](CC(=O)O)C(=O)N[C@@H](Cc1ccccc1)C(=O)N[C@H](C(=O)N[C@@H](CC(N)=O)C(=O)N[C@@H](Cc1c[nH]c2ccccc12)C(=O)N[C@@H](CC(C)C)C(=O)N[C@@H](CC(C)C)C(=O)N[C@@H](C)C(=O)N[C@@H](CCC(N)=O)C(=O)N[C@@H](CCCCN)C(=O)NCC(=O)N[C@@H](CCCCN)C(=O)N[C@@H](CCCCN)C(=O)N[C@@H](CC(N)=O)C(=O)N[C@@H](CC(=O)O)C(=O)N[C@@H](Cc1c[nH]c2ccccc12)C(=O)N[C@@H](CCCCN)C(=O)N[C@@H](Cc1c[nH]cn1)C(=O)N[C@@H](CC(N)=O)C(=O)N[C@H](C(=O)N[C@H](C(=O)N[C@@H](CCC(N)=O)C(=O)O)[C@@H](C)O)[C@@H](C)CC)C(C)C)[C@@H](C)CC [GIP 1–42, reference compound]

Compound: YAPGTFISDYSIAMDKIHQQDFVNWLLAQKGKKNDWKHNITQ [(Pro^3)GIP]
reduction of non-fasting plasma glucose levels ([3]; 25 nmol/kg/day i.p., 11 days, vs controls): 1.6 fold
reduction of overall glycemic excursion (AUC) to a glucose load ([3]; 25 nmol/kg/day i.p., 11 days, vs controls (abstract of Example 5)): 1.6 fold
decrease of AUC insulin in response to native GIP with glucose [3, 6]: 25%
increase of AUC glucose in response to native GIP with glucose [3, 6]: 151%
glycated hemoglobin ([3]; 9 days following cessation of daily injection): 7.7±0.4%
average islet diameter ([3]; 11 days treatment): markedly and significantly reduced
enhancement of insulin sensitivity ([3]; 11 days treatment): 1.6 fold
islet number per pancreatic section ([3]; 11 days treatment): No significant differences
lowering of overall plasma glucose response to feeding ([3]; 11 days treatment): 1.4 fold
lowering of overall plasma insulin response to feeding ([3]; 11 days treatment): 1.5 fold
pancreatic weight ([3]; 11 days treatment): no effect
plasma insulin AUC 0-60 minutes after i.p. glucose ([3]; 11 days treatment): significantly decreased
reduction of pancreatic insulin content ([3]; 11 days treatment): 1.3 fold
reduction of plasma glucose AUC 0-60 minutes after i.p. glucose ([3]; 11 days treatment, glucose 18 mmoles/kg, vs controls): 2.1 fold
hypoglycemic action of insulin (AUC and post injection values) ([3]; 11 days treatment, insulin 50 U/kg i.p.): significantly (P<0.05) augmented
pancreatic insulin content ([3]; 11 days treatment, vs controls): significantly (P<0.05) decreased
glycated hemoglobin ([3]; after 11 days treatment): 6.9±0.2%
glycated hemoglobin ([3]; before treatment): 8.0±0.3%
body weight ([3]; daily 25 nmol/kg, 11 days): no effect
food intake ([3]; daily 25 nmol/kg, 11 days): no effect
non-fasting plasma glucose ([3]; day 11): significantly reduced
plasma insulin levels ([3]; during or after the treatment period): No significant changes
adverse effects ([3]; following administration to ob/ob mice): No adverse effects were observed
increase in the glucose-lowering action of exogenous insulin ([3]; insulin sensitivity test after 11 days): 57%

— patent US7875587B2, “Peptide analogues of GIP for treatment of diabetes, insulin resistance and obesity” (UUTECH Limited, priority 2004, dated 2011)
